Data: US20230241257A1, “BIOTIN-MODIFIED DIMER AND USE THEREOF” (THE UNIVERSITY OF TOKYO, priority 2020, published 2023)

Columns and labels:
[1] = system: human stomach cancer cells (MKN-45); experiment: Experiment 2: pharmacokinetics of Cupid-scFv antibody (24 h before)+^211At-psyche-B in MKN-45 cancer-bearing mouse models; type: in vivo, mice (BALB/cSlc nu/nu)
Procedure: The present experiment used highly CEA-expressing human stomach cancer cells (MKN-45). 9-week-old male immunodeficient mice (BALB/cSlc nu/nu) were used. MKN-45 cells (1×10^7/0.1 ml) were transplanted into the mice's subcutis on the right shoulder dorsal side to produce MKN-45 cancer-bearing mouse models. The mice were divided into four groups when the tumor volume became a predetermined size (on Day 13 after the transplantation). A Cupid-scFv antibody was administered in 100 μmol/0.1 ml via the caudal vein of each mouse. Twenty-four hours after administration of the Cupid-scFv antibody, ^211At-psyche-B (about 0.25 MBq/100 ml) was administered via the caudal vein of the mice. One minute, 1 hour, 6 hours, and 24 hours after administration of the ^211At-psyche-B, the mice were euthanized by collecting whole blood from the heart of each mouse under isoflurane anesthesia, and tumor tissues and normal tissues/organs were then excised. Normal tissues/organs: skin (lower right limb), muscle (right gastrocnemius muscle), heart, lung, spleen, pancreas, white fat (upper portion of right side testis), testis (right side), stomach (without contents), small intestine, large intestine, liver, brown fat, submandibular gland, thyroid gland (together with trachea), bone (right femur), cerebrum, eyeballs (both sides), bladder, and urine; the remaining residues were divided into three equal parts, and the three equal parts were defined to be residue-1, residue-2, and residue-3. After that, the weights of blood, plasma, urine, tumor, and normal tissues/organs were measured, and the radioactivity thereof was then measured using a γ counter. The amounts of the ^211At-psyche-B (radioactivity) accumulated in the blood, plasma, urine, tumor, and normal tissues/organs were calculated. That is to say, the rates (% ID/g) of the ^211At-psyche-B accumulated per unit weight (g) of the blood, plasma, urine, tumor, and normal tissues/organs, in the administered ^211At-psyche-B, were shown. Regarding accumulation of the ^211At-psyche-B in the thyroid gland, since the weight of the thyroid gland could not be precisely measured, it was shown that the rate (% ID) of the ^211At-psyche-B accumulated in the thyroid gland in the administered ^211At-psyche-B.

[2] = system: human stomach cancer cells (MKN-45); experiment: Experiment 8: therapeutic effects and toxicity of Cupid-scFv antibody (24 h before)+^211At-psyche-BR in MKN-45 cancer-bearing mouse models; type: in vivo, mice (BALB/cSlc nu/nu); conditions: for general states and body weight: Day 5, urgent euthanasia
Procedure: The present experiment used human stomach cancer cells (MKN-45) expressing carcinoembryonic antigen (CEA). 9-week-old male immunodeficient mice (BALB/cSlc nu/nu) were used. MKN-45 cells (5×10^6/0.1 ml) were transplanted into the mice's subcutis on the right shoulder dorsal side to produce cancer-bearing mouse models. At the time point in which the tumor volume became a predetermined size (on Day 8 after the transplantation), the mice were divided into seven groups, which were for use in the evaluation of the therapeutic effects, and a biodistribution group (6 hours) of cancer-bearing mouse models having this tumor size. The Cupid-scFv antibody was administered 100 μmol/0.1 ml via the caudal vein of each mouse. Twenty-four hours after administration of the Cupid-scFv antibody, ^211At-psyche-BR was administered via the caudal vein of each mouse in an amount of 5.55 MBq, 3.70 MBq, 1.85 MBq, 1.11 MBq, or 0.37 MBq.
To a control group, a solvent for the ^211At-psyche-BR was administered (solvent group). A group to which only cupid was administered was defined as a Cupid group. The mice's general states were observed and recorded immediately after administration of the ^211At-psyche-BR and at 3 hours after the administration. Moreover, until Day 14, after administration of the ^211At-psyche-BR, observation of the general states and the measurement of the body weight was carried out every day. After Day 14 of the administration of the ^211At-psyche-BR, observation of the general states and the measurement of the body weight was carried out every other day. The tumor size was measured every other day after the treatment with the ^211At-psyche-BR. On Day 36, after the treatment with the ^211At-psyche-BR, observation of the general states, the measurement of the body weight, and the measurement of the tumor size were carried out, and the mice were then euthanized by collecting whole blood from the heart of each mouse under isoflurane anesthesia. Tumor tissues and major tissues/organs were excised from the mice, weighed, and immobilized with formalin.

For `N=C1N[C@H]2[C@H](CS[C@H]2CCCCC(=O)NCCCCCC(=O)Nc2cc(NC(=O)CCCCCNC(=O)CCCC[C@@H]3SC[C@@H]4NC(=N)N[C@@H]43)cc(C(=O)NCCOCCOCCNC(=O)c3cccc([211At])c3)c2)N1` [^211At-psyche-B], the “Accumulation in the kidney” value ([1]; after 1 minute) was 29.3±1.5 % ID/g, the “Accumulation in the liver” value ([1]; after 1 minute) was 17.4±2.3 % ID/g and the “Accumulation in the lung” value ([1]; after 1 minute) was 15.9±1.7 % ID/g. For the same molecule, the “Accumulation in the spleen” value ([1]; after 1 minute) was 4.9±1.7 % ID/g, the “Accumulation in the tumor” value ([1]; after 1 minute) was 0.6±0.1 % ID/g and the “Clearance from the blood” value ([1]; after 1 minute) was 46.4±1.4 % ID/g. For the same molecule, the tumor-to-blood ratio ([1]; after 1 minute) was 0.01±0.00, the tumor-to-muscle ratio ([1]; after 1 minute) was 1.5±0.3 and the “Accumulation in the kidney” value ([1]; after 1 hour) was 14.2±1.3 % ID/g. For the same molecule, the “Accumulation in the liver” value ([1]; after 1 hour) was 13.6±1.4 % ID/g, the “Accumulation in the lung” value ([1]; after 1 hour) was 14.7±3.6 % ID/g and the “Accumulation in the spleen” value ([1]; after 1 hour) was 7.9±1.1 % ID/g. For the same molecule, the “Accumulation in the tumor” value ([1]; after 1 hour) was 3.2±0.4 % ID/g, the “Clearance from the blood” value ([1]; after 1 hour) was 40.6±3.2 % ID/g and the tumor-to-blood ratio ([1]; after 1 hour) was 0.08±0.01. For the same molecule, the tumor-to-muscle ratio ([1]; after 1 hour) was 5.2±1.0, the “Accumulation in the kidney” value ([1]; after 6 hours) was 9.8±0.7 % ID/g and the “Accumulation in the liver” value ([1]; after 6 hours) was 16.0±1.4 % ID/g. For the same molecule, the “Accumulation in the lung” value ([1]; after 6 hours) was 11.2±0.9 % ID/g, the “Accumulation in the spleen” value ([1]; after 6 hours) was 10.1±0.3 % ID/g and the “Accumulation in the tumor” value ([1]; after 6 hours) was 11.8±1.5 % ID/g. For the same molecule, the “Clearance from the blood” value ([1]; after 6 hours) was 29.4±0.9 % ID/g, the tumor-to-blood ratio ([1]; after 6 hours) was 0.40±0.05 and the tumor-to-muscle ratio ([1]; after 6 hours) was 14.0±0.9. The “Accumulation in the thyroid gland” value ([1]; after 24 h) was 0.16±0.06 % ID, the “Accumulation in the kidney” value ([1]; after 24 hours) was 4.7±0.8% and the “Accumulation in the liver” value ([1]; after 24 hours) was 15.5±0.1%. For the same molecule, the “Accumulation in the lung” value ([1]; after 24 hours) was 4.2±0.5%, the “Accumulation in the spleen” value ([1]; after 24 hours) was 9.6±2.4% and the “Accumulation in the tumor” value ([1]; after 24 hours) was 16.3±4.1%. The “Clearance from the blood” value ([1]; after 24 hours) was 6.2±1.3 % ID/g, the “administered amount excreted (blood)” value ([1]; after 24 hours) was 94% and the tumor-to-blood ratio ([1]; after 24 hours) was 2.63±0.10. The tumor-to-muscle ratio ([1]; after 24 hours) was 26.5±4.6.

In the case of `N=C1N[C@H]2[C@H](CS[C@H]2CCCCNC(=O)CCCCCC(=O)Nc2cc(NC(=O)CCCCCC(=O)NCCCC[C@@H]3SC[C@@H]4NC(=N)N[C@@H]43)cc(C(=O)NCCOCCOCCNC(=O)c3cccc([211At])c3)c2)N1` [^211At-psyche-BR], the “general states and body weight changes” value ([2]; 0.37 MBq) was “almost the same levels as in the control group”, the “tumor growth compared with the control group” value ([2]; 0.37 MBq, until Day 10) was “tumor growth was suppressed” and the “general states and body weight changes” value ([2]; 1.11 MBq) was “almost the same levels as in the control group”. For the same molecule, the “tumor growth compared with the control group” value ([2]; 1.11 MBq, until Day 10) was “tumor growth was suppressed”, the “tumor growth compared with the control group” value ([2]; 1.85, 1.11 and 0.37 MBq, after Day 10) was “the tumor growth was suppressed in an amount-dependent manner” and the “tumor growth compared with the control group” value ([2]; 1.85 MBq, until Day 10) was “tumor growth was suppressed”. For the same molecule, the “general states and body weight” value ([2]; 3.70 MBq) was “general states and body weight reduction became severe” and the “general states and body weight” value ([2]; 5.55 MBq) was “general states and body weight reduction became severe”.
